Experimental data reported in patent US6723702B2, “Use of relaxin treat diseases related to vasoconstriction” (RAS Medical, Inc., priority 2000, dated 2004).

Legend:
[1] = Serum rhRLX, quantitative sandwich immunoassay (Example 2); assay type: in vivo, rat; conditions: 4 μg/hour
From the text: The technique of urine collection has proven to be reliable. Conrad and Colpoys (1986) J. Clin. Invest. 77:236-245; Danielson and Conrad (1995) J. Clin. Invest. 96:482-490; and Danielson and Conrad (1996) Circ. Res. 79:1161-1166. Indeed, after reaching steady-state in this study, the excretion rates of IN and PAH were 91±3 and 100±4% of their respective infusions. After measuring baseline mean arterial pressure and renal function, an osmotic minipump (model 2ML1, Alza Co., Palo Alto Calif.) containing either recombinant human relaxin (rhRLX; n=12 rats) or vehicle (n=7) was implanted subcutaneously on the back using light ether anesthesia. […] Five days later, mean arterial pressure (MAP), glomerular filtration rate (GFR), effective renal plasma flow (ERPF), and other parameters were again assessed as describe above. At this time, the excretion rates of IN and PAH were 91±3 and 98±2% of their respective infusion rates. […]
Inulin concentration in plasma and urine was measured by the anthrone method, and PAH was determined by the method of Bratton and Marshall as modified by Smith. […] Plasma sodium was measured by a Kodak Ektachem Instrument (Rochester, N.Y.). Plasma osmolality was determined by freezing point depression (Advanced Osmometer, Model 3MO, Advanced Instruments, Needham Heights Mass.). […] The rhRLX in serum was measured using a quantitative sandwich immunoassay, again in a blinded fashion. […]

[2] = tested on: ischemic wound on the back region of rats; assay: Ischemic H-shaped double flap wound model; assay type: in vivo, rat
Procedure: The effect of rhRLX on normal and ischemic wound healing in two rat models of dermal wound healing was evaluated. RhRLX in vehicle, or vehicle alone, was delivered by subcutaneous infusion to Sprague-Dawley rats using an implanted ALZET7 osmotic pump (Alza Corp., Mountain View, Calif.).
In the second model, a standardized ischemic, H-shaped, double flap wound was made on the back region. The area of surface necrosis was measured on day 14 and day 21.
In the third animal model, a standard ischemic wound (H-shaped, 8 cm long and 2 cm wide) was created on the back region of rats. Perforating branches of the central vein were cut to ensure that the wound was ischemic. The resulting wound is then ischemic, but not completely necrotic. On day 14 and day 21, the surface necrosis was measured. RhRlx treatment (0.2 mg/kg via minipump) reduced the surface necrotic area in the flap region, compared to vehicle treatment (at day 14: vehicle 195 mm^2, rhRlx 123 mm^2; at day 21 vehicle 180 mm^2, rhRlx 103 mm^2).

endothelial cells = assay: Other aspects of endothelial cell phenotype (collagen, metalloproteinase/TIMP-1, invasion, tube formation, chemotaxis); assay type: cell-based
Procedure: Relaxin was then assayed for the ability to induce proliferation of endothelial cells directly. Relaxin's potential mitogenic effect was tested on human primary umbilical vein, aortic, foreskin, and pulmonary endothelial cells, as well as rat aortic endothelial cells. […] Alterations in other aspects of endothelial cell phenotype that are believed to correlate with angiogenesis were also tested. Relaxin had no effect on collagen expression, judged by SDS-PAGE of ^3H-proline-labeled cellular proteins; or metalloproteinase or tissue inhibitor of metalloproteinase-1 secretion, assessed by gelatin zymography. […] Therefore, relaxin had no apparent effect directly on endothelial cells.

With “rhRLX: recombinant human relaxin, identical in amino acid sequence to the product of the human H2 gene; A chain of 24, B chain of 29 amino acids” the “mean serum concentration of rhRLX” value ([1]; female rats, day 5) was 16.6 ± 1.5 ng/mL, the “mean serum concentration of rhRLX” value ([1]; male rats, day 5, n=12) was 12.3 ± 0.7 ng/mL and the “surface necrotic area in the flap region” value ([2]; 0.2 mg/kg via minipump, day 14) was 123 mm^2. The “surface necrotic area in the flap region” value ([2]; 0.2 mg/kg via minipump, day 21) was 103 mm^2, the “surface necrotic area in the flap region” value ([2]; Example 4, day not stated) was 123 mm^2 and the “expression of NO synthase on vascular endothelium” value ([2]; immunohistochemical staining, systemic treatment) was “enhances”. For the same substance, the chemotaxis in vitro (endothelial cells) was “nor did it induce chemotaxis”, the collagen expression (endothelial cells; SDS-PAGE of 3H-proline-labeled cellular proteins) was “no effect” and the “ability of endothelial cells to invade the substrate or to form tube structures” value (endothelial cells; Type I collagen or Matrigel substrate) was “no effect”. The “metalloproteinase or tissue inhibitor of metalloproteinase-1 secretion” value (endothelial cells; gelatin zymography) was “no effect”.
